From patent US20060004197A1, “Sulfonamide-based compounds as protein tyrosine kinase inhibitors” (priority 2004, published 2006)

target: T1, Recombinant human Src (Homo sapiens, UniProt P12931); assay: Src tyrosine kinase activity, poly E4Y / 32P-ATP phosphorylation assay; type: biochemical; conditions: compound at 15 μg/mL; read-out: % Inhibition at 15 μg/mL Src %
T1 construct: made in house; host or cells: baculovirus-insect cell system
Method: Recombinant human Src was expressed using the baculovirus-insect cell system and purified as published (Budde et al., 1993 and 2000).
The tyrosine kinase activity of Src, Csk and FGFr was determined using poly E4Y and ^32P-ATP. Briefly, enzymes were assayed in a reaction mixture consisting of 0.15 M EPPS-NaOH (pH 8.0) with 6 mM MgCl2, 0.2 mM γ^32P-ATP (0.2-0.4 mCi/μmol), 10% glycerol, 0.1% Triton X-100, and poly E4Y. Poly E4Y is a synthetic peptide whose phosphorylation is measured in this assay by the addition of the radioactively labeled phosphate from the ATP (Budde et al., 1995). […] When ATP was varied (0, 50, 100 and 250 μM), poly E4Y was kept constant at 150 μg/ml.

T1 sequence (P12931 whole entry): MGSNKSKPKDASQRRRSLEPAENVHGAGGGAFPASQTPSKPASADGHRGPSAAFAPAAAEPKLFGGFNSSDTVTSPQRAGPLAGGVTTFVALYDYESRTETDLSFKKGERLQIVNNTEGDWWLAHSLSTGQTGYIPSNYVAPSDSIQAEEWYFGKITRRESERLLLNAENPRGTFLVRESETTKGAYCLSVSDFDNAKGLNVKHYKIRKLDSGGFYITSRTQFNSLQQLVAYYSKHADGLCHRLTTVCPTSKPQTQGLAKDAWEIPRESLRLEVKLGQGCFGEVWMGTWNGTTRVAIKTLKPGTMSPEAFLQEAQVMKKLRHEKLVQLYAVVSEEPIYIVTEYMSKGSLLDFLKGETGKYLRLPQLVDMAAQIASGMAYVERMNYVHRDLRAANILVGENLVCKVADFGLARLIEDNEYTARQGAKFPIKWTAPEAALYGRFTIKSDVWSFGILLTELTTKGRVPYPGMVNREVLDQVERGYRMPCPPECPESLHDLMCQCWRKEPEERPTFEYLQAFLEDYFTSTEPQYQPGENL

In order of rising inhibition at 15 µg/mL:
1. COc1ccc(Oc2ccc(NS(=O)(=O)c3ccc(C)cc3)c(NC(=O)c3cnc(C)cn3)c2)cc1 [Compound 71h, N-[5-(4-methoxy-phenoxy)-2-(4-toluenesulfonylamino)-phenyl]-5-methyl-pyrazine-2-carboxamide]  0%
2. COc1ccc(Oc2ccc(N)c(N(C)S(=O)(=O)c3ccc(C)cc3)c2)cc1 [Compound 71t, N-[2-amino-5-(4-methoxy-phenoxy)-phenyl]-N-methyl-4-toluenesulfonamide]  0%
3. COc1ccc(OCc2ccc(CNC(=O)c3ccc(C)cc3)c(NS(=O)(=O)c3ccc(C)cc3)c2)cc1 [Compound 71ff, N-[4-(4-methoxy-phenoxymethyl)-2-(4-toluenesulfonylamino)-benzyl]-4-toluamide]  4%
4. COc1ccc(Oc2ccc(NS(=O)(=O)c3ccc(C)cc3)c(N=Cc3ccc4ccccc4n3)c2)cc1 [Compound 71u, N-{4-(4-methoxy-phenoxy)-2-[(quinolin-2-ylmethylene)-amino]-phenyl}-4-toluenesulfonamide]  6%
5. COc1ccc(Oc2ccc(NCc3ccc4ccccc4n3)c(NS(=O)(=O)c3ccc(C)cc3)c2)cc1 [Compound 71g, N-{5-(4-methoxy-phenoxy)-2-[(quinolin-2-ylmethyl)-amino]-phenyl}-4-toluenesulfonamide]  10%
6. COc1ccc(Oc2ccc(NC(=O)Cc3ccccc3)c(NS(=O)(=O)c3ccc(C)cc3)c2)cc1 [Compound 71s, N-[4-(4-methoxy-phenoxy)-2-(4-toluenesulfonylamino)-phenyl]-2-phenyl-acetamide]  10%
7. COc1ccc(OCc2ccc(C(N)=O)c(NS(=O)(=O)c3ccc(C)cc3)c2)cc1 [Compound 71v, 4-(4-methoxy-phenoxymethyl)-2-(4-toluenesulfonylamino)-benzamide]  10%
8. COc1ccc(Oc2ccc(N)c(CNS(=O)(=O)c3ccc(C)cc3)c2)cc1 [Compound 71i, N-[2-amino-5-(4-methoxy-phenoxy)-benzyl]-4-toluenesulfonamide]  13%
9. COc1ccc(Oc2cc(NS(=O)(=O)c3ccc(C)cc3)c(N)cc2C(F)(F)F)cc1 [Compound 71gg, N-[2-amino-5-(4-methoxy-phenoxy)-4-trifluoromethyl-phenyl]-4-toluenesulfonamide]  19%
10. COc1ccc(Oc2ccc(NCc3ccc(C)cc3)c(NS(=O)(=O)c3ccc(C)cc3)c2)cc1 [Compound 71jj, N-[5-(4-methoxy-phenoxy)-2-(4-methyl-benzylamino)-phenyl]-4-toluenesulfonamide]  19%
11. CCc1ccc(NS(=O)(=O)c2ccc(OC)cc2NS(=O)(=O)c2ccc(C)cc2)cc1 [Compound 71mm, N-(4-ethyl-phenyl)-4-methoxy-2-(4-toluenesulfonylamino)-benzenesulfonamide]  19%
12. COc1ccc(Oc2cc(N)c(NS(=O)(=O)c3ccc(C)cc3)cc2C(F)(F)F)cc1 [Compound 71ee, N-[2-amino-4-(4-methoxy-phenoxy)-5-trifluoromethyl-phenyl]-4-toluenesulfonamide]  21%
13. COc1ccc(Oc2ccc(NS(=O)(=O)c3ccc(C)cc3)c(NC(=O)NS(=O)(=O)c3ccc(C)cc3)c2)cc1 [Compound 71ii, N-{4-(4-methoxy-phenoxy)-2-[3-(4-toluenesulfonyl)-ureido]-phenyl}-4-toluenesulfonamide]  21%
14. COc1ccc(Oc2ccc(NS(=O)(=O)c3ccc(C)cc3)c(NCc3ccc(C)cc3)c2)cc1 [Compound 71hh, N-[4-(4-methoxy-phenoxy)-2-(4-methyl-benzylamino)-phenyl]-4-toluenesulfonamide]  23%
15. Nc1cc(SCc2ccccc2Cl)c([N+](=O)[O-])cc1NS(=O)(=O)c1ccc(Cl)c2nonc12 [Compound 71ll, N-[2-amino-4-(2-chloro-benzylsulfanyl)-5-nitro-phenyl]-7-chloro-benzo[1,2,5]oxadiazole-4-sulfonamide]  26%
16. Cc1ccc(S(=O)(=O)Nc2cc(SCc3ccccc3Cl)ccc2N)cc1 [Compound 71kk, N-[2-amino-5-(2-chloro-benzylsulfanyl)-phenyl]-4-toluenesulfonamide]  29%
17. Cc1ccc(S(=O)(=O)Nc2ccc(S(=O)(=O)Cc3ccccc3Cl)cc2NS(=O)(=O)c2ccc(C)cc2)cc1 [Compound 71nn, N-[4-(2-chloro-phenylmethanesulfonyl)-2-(4-toluenesulfonylamino)-phenyl]-4-toluenesulfonamide]  46%

same assay, conditions: poly E4Y / 32P-ATP; Formula IV compounds

In order of falling IC50:
1. COc1ccc(Oc2ccc(NS(=O)(=O)c3ccc(C)cc3)c(CN)c2)cc1 [Compound 71n, N-[2-aminomethyl-4-(4-methoxy-phenoxy)-phenyl]-4-toluenesulfonamide]  1300 µM
2. COc1ccc(Oc2ccc(NCc3cc4ccccc4o3)c(NS(=O)(=O)c3ccc(C)cc3)c2)cc1 [Compound 71f, N-[2-[(benzofuran-2-ylmethyl)-amino]-5-(4-methoxy-phenoxy)-phenyl]-4-toluenesulfonamide]  627 µM
3. COc1ccc(Oc2ccc(NCc3ccc(C#N)cc3)c(NS(=O)(=O)c3ccc(C)cc3)c2)cc1 [Compound 71d, N-[2-(4-cyano-benzylamino)-5-(4-methoxy-phenoxy)-phenyl]-4-toluenesulfonamide]  557 µM
4. COc1ccc(Oc2ccc(NCc3ccc(NC(C)=O)cc3)c(NS(=O)(=O)c3ccc(C)cc3)c2)cc1 [Compound 71e, N-(4-{[4-(4-methoxy-phenoxy)-2-(4-toluenesulfonylamino)-phenylamino]-methyl}-phenyl)-acetamide]  203 µM
5. COc1ccc(Oc2ccc(NS(=O)(=O)c3ccc(C)cc3)c(N(C)S(=O)(=O)c3ccc(C)cc3)c2)cc1 [Compound 71dd, N-[4-(4-methoxy-phenoxy)-2-(4-toluenesulfonyl-methyl-amino)-phenyl]-4-toluenesulfonamide]  172 µM
6. COc1ccc(Oc2ccc(NC(=O)c3ccc(C)cc3)c(NS(=O)(=O)c3ccc(C)cc3)c2)cc1 [Compound 71r, N-[4-(4-methoxy-phenoxy)-2-(4-toluenesulfonylamino)-phenyl]-4-toluamide]  159 µM
7. COc1ccc(Oc2ccc(NS(=O)(=O)c3ccc(C)cc3)c(CNS(=O)(=O)c3ccc(C)cc3)c2)cc1 [Compound 71m, N-[4-(4-methoxy-phenoxy)-2-(4-toluenesulfonylamino-methyl)-phenyl]-4-toluenesulfonamide]  136 µM
8. COc1ccc(Oc2ccc(NS(=O)(=O)c3ccc(C)cc3)c(CNC(=O)c3ccc(C)cc3)c2)cc1 [Compound 71p, N-[5-(4-methoxy-phenoxy)-2-(4-toluenesulfonylamino)-benzyl]-4-toluamide]  108 µM
9. COc1ccc(Oc2ccc(NS(=O)(=O)c3ccc(C)cc3)c(NC(=O)c3ccc(C)cc3)c2)cc1 [Compound 71q, N-[5-(4-methoxy-phenoxy)-2-(4-toluenesulfonylamino)-phenyl]-4-toluamide]  99 µM
10. COc1ccc(Oc2ccc(NS(=O)(=O)c3ccc(C)cc3)c(N)c2)cc1 [Compound 71l, N-[2-amino-4-(4-methoxy-phenoxy)-phenyl]-4-toluenesulfonamide]  62 µM
11. Cc1ccc(S(=O)(=O)Nc2ccc(NC(=O)c3ccccc3)cc2N(C(=O)c2ccccc2)S(=O)(=O)c2ccc(C)cc2)cc1 [Compound 71o, N-[3-[benzoyl-(4-toluenesulfonyl)-amino]-4-(4-toluenesulfonylamino)-phenyl]-benzamide]  39 µM
